Data taken from ChEMBL document CHEMBL3085714 (J Med Chem, 2013).

How the values were obtained:
Homo sapiens [1] = organism: Homo sapiens; assay: Selectivity for p38alpha MAP kinase (unknown origin) over LCK (unknown origin)
Homo sapiens [2] = organism: Homo sapiens; assay: Selectivity for p38alpha MAP kinase (unknown origin) over TIE2 (unknown origin)
Homo sapiens [3] = organism: Homo sapiens; assay: Selectivity for p38alpha MAP kinase (unknown origin) over PIM1 (unknown origin)
Homo sapiens [4] = organism: Homo sapiens; assay: Selectivity for p38alpha MAP kinase (unknown origin) over ROCK2 (unknown origin)
Homo sapiens [5] = organism: Homo sapiens; assay: Selectivity for p38alpha MAP kinase (unknown origin) over EPHA3 (unknown origin)
Homo sapiens [6] = organism: Homo sapiens; assay: Selectivity for p38alpha MAP kinase (unknown origin) over GRK4 (unknown origin)
[7] = molecular target: T1, Mitogen-activated protein kinase 14 (Homo sapiens, UniProt Q16539); assay: Competitive inhibition of p38alpha MAP kinase (unknown origin) at 10 uM in presence of 100 uM ATP
T1 sequence (Q16539 whole entry): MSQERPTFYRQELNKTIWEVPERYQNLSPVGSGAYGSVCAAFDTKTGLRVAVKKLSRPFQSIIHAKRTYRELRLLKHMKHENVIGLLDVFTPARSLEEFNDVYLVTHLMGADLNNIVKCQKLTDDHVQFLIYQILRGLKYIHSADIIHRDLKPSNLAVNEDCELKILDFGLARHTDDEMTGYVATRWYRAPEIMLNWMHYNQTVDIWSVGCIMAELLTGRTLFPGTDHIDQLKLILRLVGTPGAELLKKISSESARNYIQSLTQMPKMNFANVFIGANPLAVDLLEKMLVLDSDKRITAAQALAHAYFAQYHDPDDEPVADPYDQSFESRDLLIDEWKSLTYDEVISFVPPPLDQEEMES

Homo sapiens [8] = organism: Homo sapiens; assay: Selectivity for p38alpha MAP kinase (unknown origin) over MEK1 (unknown origin)
[9] = molecular target: STE20-like serine/threonine-protein kinase (Homo sapiens) (UniProt Q9H2G2); assay: Inhibition of SLK (unknown origin) at 10 uM
STE20-like serine/threonine-protein kinase (Homo sapiens), sequence (Q9H2G2 whole entry, looked up): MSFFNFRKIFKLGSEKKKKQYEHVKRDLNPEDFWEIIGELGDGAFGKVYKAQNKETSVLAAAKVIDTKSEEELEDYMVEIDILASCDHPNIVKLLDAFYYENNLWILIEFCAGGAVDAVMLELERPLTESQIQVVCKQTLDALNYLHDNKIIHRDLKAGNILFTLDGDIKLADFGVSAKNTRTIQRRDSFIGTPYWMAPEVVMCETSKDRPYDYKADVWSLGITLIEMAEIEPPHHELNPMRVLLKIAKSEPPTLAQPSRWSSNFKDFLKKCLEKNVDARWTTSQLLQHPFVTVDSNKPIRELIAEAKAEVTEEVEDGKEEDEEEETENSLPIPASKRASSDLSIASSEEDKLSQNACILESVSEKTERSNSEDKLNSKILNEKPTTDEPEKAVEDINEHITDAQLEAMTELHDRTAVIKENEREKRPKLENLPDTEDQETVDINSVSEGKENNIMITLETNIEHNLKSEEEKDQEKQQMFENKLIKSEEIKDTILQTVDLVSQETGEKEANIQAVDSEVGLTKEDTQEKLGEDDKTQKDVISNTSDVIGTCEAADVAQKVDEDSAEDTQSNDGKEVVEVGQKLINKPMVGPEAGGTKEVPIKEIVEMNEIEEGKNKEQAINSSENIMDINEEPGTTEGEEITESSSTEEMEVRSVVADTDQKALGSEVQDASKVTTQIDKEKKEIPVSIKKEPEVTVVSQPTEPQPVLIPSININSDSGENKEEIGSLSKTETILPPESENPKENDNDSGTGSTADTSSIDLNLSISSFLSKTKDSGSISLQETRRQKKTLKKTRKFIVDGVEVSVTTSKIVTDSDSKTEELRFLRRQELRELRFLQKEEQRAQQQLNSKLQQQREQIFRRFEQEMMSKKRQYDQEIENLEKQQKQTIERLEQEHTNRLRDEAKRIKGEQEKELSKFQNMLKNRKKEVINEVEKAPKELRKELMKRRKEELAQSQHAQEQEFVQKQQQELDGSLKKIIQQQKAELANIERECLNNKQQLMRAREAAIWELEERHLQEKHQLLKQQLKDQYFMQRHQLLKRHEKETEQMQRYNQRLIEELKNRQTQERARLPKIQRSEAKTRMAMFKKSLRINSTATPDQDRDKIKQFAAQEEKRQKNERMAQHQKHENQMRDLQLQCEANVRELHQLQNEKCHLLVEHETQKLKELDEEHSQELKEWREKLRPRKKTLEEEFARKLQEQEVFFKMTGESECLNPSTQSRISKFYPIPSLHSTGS

Homo sapiens [10] = organism: Homo sapiens; assay: Selectivity for p38alpha MAP kinase (unknown origin) over JAK3 (unknown origin)
Homo sapiens [11] = organism: Homo sapiens; assay: Selectivity for p38alpha MAP kinase (unknown origin) over PDGFR-beta (unknown origin)
Homo sapiens [12] = organism: Homo sapiens; assay: Selectivity for p38alpha MAP kinase (unknown origin) over CDC42BPB (unknown origin)
Homo sapiens [13] = organism: Homo sapiens; assay: Selectivity for p38alpha MAP kinase (unknown origin) over TEC (unknown origin)
Homo sapiens [14] = organism: Homo sapiens; assay: Selectivity for p38alpha MAP kinase (unknown origin) over RON (unknown origin)
Homo sapiens [15] = organism: Homo sapiens; assay: Selectivity for p38alpha MAP kinase (unknown origin) over IRAK1 (unknown origin)
Homo sapiens [16] = organism: Homo sapiens; assay: Selectivity for p38alpha MAP kinase (unknown origin) over EPHA8 (unknown origin)
Homo sapiens [17] = organism: Homo sapiens; assay: Selectivity for p38alpha MAP kinase (unknown origin) over PASK (unknown origin)
Homo sapiens [18] = organism: Homo sapiens; assay: Selectivity for p38alpha MAP kinase (unknown origin) over ROS (unknown origin)
Homo sapiens [19] = organism: Homo sapiens; assay: Selectivity for p38alpha MAP kinase (unknown origin) over FGR (unknown origin)
Homo sapiens [20] = organism: Homo sapiens; assay: Selectivity for p38alpha MAP kinase (unknown origin) over STK23 (unknown origin)
Homo sapiens [21] = organism: Homo sapiens; assay: Selectivity for p38alpha MAP kinase (unknown origin) over MST2 (unknown origin)
Homo sapiens [22] = organism: Homo sapiens; assay: Selectivity for p38alpha MAP kinase (unknown origin) over HCK (unknown origin)
Homo sapiens [23] = organism: Homo sapiens; assay: Selectivity for p38alpha MAP kinase (unknown origin) over RAF1 Y340D/Y341D double mutant (unknown origin)
Homo sapiens [24] = organism: Homo sapiens; assay: Selectivity for p38alpha MAP kinase (unknown origin) over NEK2 (unknown origin)
Homo sapiens [25] = organism: Homo sapiens; assay: Selectivity for p38alpha MAP kinase (unknown origin) over DYRK1B (unknown origin)
Homo sapiens [26] = organism: Homo sapiens; assay: Selectivity for p38alpha MAP kinase (unknown origin) over TGFB-R2 (unknown origin)
Homo sapiens [27] = organism: Homo sapiens; assay: Selectivity for p38alpha MAP kinase (unknown origin) over SGK1 (unknown origin)
[28] = molecular target: Calcium/calmodulin-dependent protein kinase type II subunit delta (Homo sapiens) (UniProt Q13557); assay: Inhibition of CAMK2D (unknown origin) at 10 uM
Calcium/calmodulin-dependent protein kinase type II subunit delta (Homo sapiens), sequence (Q13557 whole entry): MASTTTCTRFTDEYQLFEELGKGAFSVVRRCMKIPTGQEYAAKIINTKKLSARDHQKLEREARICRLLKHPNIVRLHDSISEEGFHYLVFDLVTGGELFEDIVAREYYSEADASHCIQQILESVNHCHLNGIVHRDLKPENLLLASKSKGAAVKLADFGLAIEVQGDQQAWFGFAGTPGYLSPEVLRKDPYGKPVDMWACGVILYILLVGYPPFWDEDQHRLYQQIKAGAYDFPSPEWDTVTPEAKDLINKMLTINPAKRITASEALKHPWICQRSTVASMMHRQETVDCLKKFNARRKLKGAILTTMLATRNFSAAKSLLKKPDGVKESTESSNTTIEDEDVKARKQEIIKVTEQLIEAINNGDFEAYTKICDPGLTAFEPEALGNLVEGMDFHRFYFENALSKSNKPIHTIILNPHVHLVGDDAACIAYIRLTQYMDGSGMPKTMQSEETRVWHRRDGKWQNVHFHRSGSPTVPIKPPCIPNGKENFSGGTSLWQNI

Homo sapiens [29] = organism: Homo sapiens; assay: Selectivity for p38alpha MAP kinase (unknown origin) over STK25 (unknown origin)
Homo sapiens [30] = organism: Homo sapiens; assay: Selectivity for p38alpha MAP kinase (unknown origin) over DNA-PK (unknown origin)
Homo sapiens [31] = organism: Homo sapiens; assay: Selectivity for p38alpha MAP kinase (unknown origin) over MET Y1230H mutant (unknown origin)
Homo sapiens [32] = organism: Homo sapiens; assay: Selectivity for p38alpha MAP kinase (unknown origin) over IGF1-R (unknown origin)
Homo sapiens [33] = organism: Homo sapiens; assay: Selectivity for p38alpha MAP kinase (unknown origin) over PCTAIRE1 (unknown origin)
Homo sapiens [34] = organism: Homo sapiens; assay: Selectivity for p38alpha MAP kinase (unknown origin) over wild-type ABL1 (unknown origin)
Homo sapiens [35] = organism: Homo sapiens; assay: Selectivity for p38alpha MAP kinase (unknown origin) over SNF1LK2 (unknown origin)
[36] = molecular target: T1, Mitogen-activated protein kinase 14; assay: Competitive inhibition of p38alpha MAP kinase (unknown origin) in presence of 100 uM ATP
Homo sapiens [37] = organism: Homo sapiens; assay: Selectivity for p38alpha MAP kinase (unknown origin) over FLT3 D835Y mutant (unknown origin)
Homo sapiens [38] = organism: Homo sapiens; assay: Selectivity for p38alpha MAP kinase (unknown origin) over PDGFR-alpha V561D mutant (unknown origin)
Homo sapiens [39] = organism: Homo sapiens; assay: Selectivity for p38alpha MAP kinase (unknown origin) over AXL (unknown origin)
Homo sapiens [40] = organism: Homo sapiens; assay: Selectivity for p38alpha MAP kinase (unknown origin) over MET Y1230A mutant (unknown origin)
Homo sapiens [41] = organism: Homo sapiens; assay: Selectivity for p38alpha MAP kinase (unknown origin) over ABL1 E255K mutant (unknown origin)
Homo sapiens [42] = organism: Homo sapiens; assay: Selectivity for p38alpha MAP kinase (unknown origin) over wild type FGFR1 (unknown origin)
Homo sapiens [43] = organism: Homo sapiens; assay: Selectivity for p38alpha MAP kinase (unknown origin) over Aurora-B (unknown origin)
Homo sapiens [44] = organism: Homo sapiens; assay: Selectivity for p38alpha MAP kinase (unknown origin) over EGFR 747 to 752 deletion/P753S mutant (unknown origin)
Homo sapiens [45] = organism: Homo sapiens; assay: Selectivity for p38alpha MAP kinase (unknown origin) over ACK1 (unknown origin)
Homo sapiens [46] = organism: Homo sapiens; assay: Selectivity for p38alpha MAP kinase (unknown origin) over MAP3K7/MAP3K7IP1 (unknown origin)
Homo sapiens [47] = organism: Homo sapiens; assay: Selectivity for p38alpha MAP kinase (unknown origin) over mTOR (unknown origin)
Homo sapiens [48] = organism: Homo sapiens; assay: Selectivity for p38alpha MAP kinase (unknown origin) over JNK3 (unknown origin)
Homo sapiens [49] = organism: Homo sapiens; assay: Selectivity for p38alpha MAP kinase (unknown origin) over BMPR1A (unknown origin)
Homo sapiens [50] = organism: Homo sapiens; assay: Selectivity for p38alpha MAP kinase (unknown origin) over FLT3 ITD (unknown origin)
Homo sapiens [51] = organism: Homo sapiens; assay: Selectivity for p38alpha MAP kinase (unknown origin) over RET V804L mutant (unknown origin)
Homo sapiens [52] = organism: Homo sapiens; assay: Selectivity for p38alpha MAP kinase (unknown origin) over CHK1 (unknown origin)
Homo sapiens [53] = organism: Homo sapiens; assay: Selectivity for p38alpha MAP kinase (unknown origin) over EPHB1 (unknown origin)
Homo sapiens [54] = organism: Homo sapiens; assay: Selectivity for p38alpha MAP kinase (unknown origin) over EPHA1 (unknown origin)
Homo sapiens [55] = organism: Homo sapiens; assay: Selectivity for p38alpha MAP kinase (unknown origin) over EPHB2 (unknown origin)
Homo sapiens [56] = organism: Homo sapiens; assay: Selectivity for p38alpha MAP kinase (unknown origin) over EGFR G719C mutant (unknown origin)
Homo sapiens [57] = organism: Homo sapiens; assay: Selectivity for p38alpha MAP kinase (unknown origin) over CDK1/CycB1 (unknown origin)
Homo sapiens [58] = organism: Homo sapiens; assay: Selectivity for p38alpha MAP kinase (unknown origin) over MERTK (unknown origin)
Homo sapiens [59] = organism: Homo sapiens; assay: Selectivity for p38alpha MAP kinase (unknown origin) over PKC-zeta (unknown origin)
Homo sapiens [60] = organism: Homo sapiens; assay: Selectivity for p38alpha MAP kinase (unknown origin) over wild type FLT3 (unknown origin)
Homo sapiens [61] = organism: Homo sapiens; assay: Selectivity for p38alpha MAP kinase (unknown origin) over PYK2 (unknown origin)

Selectivity ratio (Homo sapiens [1]): > 1000 | Selectivity ratio (Homo sapiens [2]): > 1000 | Selectivity ratio (Homo sapiens [3]): > 1000 | Selectivity ratio (Homo sapiens [4]): > 1000 | Selectivity ratio (Homo sapiens [5]): > 1000 | Selectivity ratio (Homo sapiens [6]): > 1000 | inhibition [7]: > 50% | Selectivity ratio (Homo sapiens [8]): > 1000 | inhibition [9]: > 50% | Selectivity ratio (Homo sapiens [10]): > 1000 | Selectivity ratio (Homo sapiens [11]): > 1000 | Selectivity ratio (Homo sapiens [12]): > 1000 | Selectivity ratio (Homo sapiens [13]): > 1000 | Selectivity ratio (Homo sapiens [14]): > 1000 | Selectivity ratio (Homo sapiens [15]): > 1000 | Selectivity ratio (Homo sapiens [16]): > 1000 | Selectivity ratio (Homo sapiens [17]): > 1000 | Selectivity ratio (Homo sapiens [18]): > 1000 | Selectivity ratio (Homo sapiens [19]): > 1000 | Selectivity ratio (Homo sapiens [20]): > 1000 | Selectivity ratio (Homo sapiens [21]): > 1000 | Selectivity ratio (Homo sapiens [22]): > 1000 | Selectivity ratio (Homo sapiens [23]): > 1000 | Selectivity ratio (Homo sapiens [24]): > 1000 | Selectivity ratio (Homo sapiens [25]): > 1000 | Selectivity ratio (Homo sapiens [26]): > 1000 | Selectivity ratio (Homo sapiens [27]): > 1000 | inhibition [28]: > 50% | Selectivity ratio (Homo sapiens [29]): > 1000 | Selectivity ratio (Homo sapiens [30]): > 1000 | Selectivity ratio (Homo sapiens [31]): > 1000 | Selectivity ratio (Homo sapiens [32]): > 1000 | Selectivity ratio (Homo sapiens [33]): > 1000 | Selectivity ratio (Homo sapiens [34]): > 1000 | Selectivity ratio (Homo sapiens [35]): > 1000 | IC50 [36]: 1.6 nM | Selectivity ratio (Homo sapiens [37]): > 1000 | Selectivity ratio (Homo sapiens [38]): > 1000 | Selectivity ratio (Homo sapiens [39]): > 1000 | Selectivity ratio (Homo sapiens [40]): > 1000 | Selectivity ratio (Homo sapiens [41]): > 1000 | Selectivity ratio (Homo sapiens [42]): > 1000 | Selectivity ratio (Homo sapiens [43]): > 1000 | Selectivity ratio (Homo sapiens [44]): > 1000 | Selectivity ratio (Homo sapiens [45]): > 1000 | Selectivity ratio (Homo sapiens [46]): > 1000 | Selectivity ratio (Homo sapiens [47]): > 1000 | Selectivity ratio (Homo sapiens [48]): > 1000 | Selectivity ratio (Homo sapiens [49]): > 1000 | Selectivity ratio (Homo sapiens [50]): > 1000 | Selectivity ratio (Homo sapiens [51]): > 1000 | Selectivity ratio (Homo sapiens [52]): > 1000 | Selectivity ratio (Homo sapiens [53]): > 1000 | Selectivity ratio (Homo sapiens [54]): > 1000 | Selectivity ratio (Homo sapiens [55]): > 1000 | Selectivity ratio (Homo sapiens [56]): > 1000 | Selectivity ratio (Homo sapiens [57]): > 1000 | Selectivity ratio (Homo sapiens [58]): > 1000 | Selectivity ratio (Homo sapiens [59]): > 1000 | Selectivity ratio (Homo sapiens [60]): > 1000 | Selectivity ratio (Homo sapiens [61]): > 1000
SMILES: Cc1cc(F)c(NC(=O)c2ccsc2)cc1Nc1ccc2c(c1)OCc1ccc(OC[C@H](O)CO)cc1C2=O
